Results reported in EP3996814B1, “USE OF A HERBAL EXTRACT COMPRISING VERBASCOSIDE AND AUCUBIN FOR THE TREATMENT OF OSTEOARTHRITIS OF THE KNEE” (Labiotre S.r.l., priority 2019, dated 2021).

Experiments:
human neutrophils = test: MTT cell viability test; format: cell-based; settings: 1% solution, 24 hours; untreated cells = 100%
Procedure: Human neutrophils were isolated from whole blood samples taken from 10 healthy volunteers (5 men and 5 women, mean age: 34.1 ± 3.7 years) using the EasySep™ Direct human neutrophil isolation kit ([…] Technologies, Vancouver, Canada). After isolation, neutrophils were resuspended at a concentration of 5 * 10^6 cells/ml in Hank's balanced saline solution (37°C) containing 10 mM of HEPES pH 7.4, 1.6 mM Ca^2+ and not Mg^2+.
Cell viability was determined using the MTT test kit (Promega, Madison, WI, USA) according to the manufacturer's protocol (MTT: 3-(4,5-dimethylthiazol-2-yl)-2,5-diphenyltetrazolium bromide). In order to determine the cytotoxicity of the herbal extract of the invention, the cells were incubated with aqueous solutions of the herbal extract of the invention at three different concentrations (1%, 3% and 5%) for 24 hours. The cultures of the control group were not treated and the viability thereof was set to 100%. […] Int J Pharm Sei (2012) 3: 2325-2336]. […] Absorbance was subsequently measured with a microplate reader (Bio-Tek, Winooski, VT, USA) at a test wavelength of 595 nm and a reference wavelength of 690 nm. The optical density (OD) was calculated as the […]. The viability percentage was calculated using the following formula: (OD of treated sample / control OD) x 100.

PGE2 = PGE2 enzyme immunoassay in LPS-stimulated neutrophils; format: cell-based, human; settings: 5 µg/ml of LPS plus test substance 1%, 24 hours
Procedure: Human neutrophils were isolated from whole blood samples taken from 10 healthy volunteers (5 men and 5 women, mean age: 34.1 ± 3.7 years) using the EasySep™ Direct human neutrophil isolation kit ([sequence] Technologies, Vancouver, Canada). After isolation, neutrophils were resuspended at a concentration of 5 * 10^6 cells/ml in Hank's balanced saline solution (37°C) containing 10 mM of HEPES pH 7.4, 1.6 mM Ca^2+ and not Mg^2+.
Experiments were conducted on RPMI medium (RPMI: Rosewell Park Memorial Institute, cation-deficient medium Ca2+ and Mg2+ commonly used for white blood line cells) supplemented with 1% fetal bovine serum (37°C, 5% CO2, 95% humidity) after seeding neutrophils (5x10^5 cells/well) in a 96-well plate.
Evaluation of PGE2 concentrations in each well under six different experimental conditions was conducted using a commercially available competitive PGE2 enzyme immunoassay kit (GE Healthcare, Milwaukee, WI, USA). All tests were conducted three times.

[1] = tested on: patients with mild to moderate osteoarthritis of the knee; test: Randomised, single-blind, active-controlled pilot clinical study, clinical endpoints (VAS, range of motion, WOMAC); format: in vivo, human; settings: oral 200 mg/day, n = 50; for WOMAC scores Stiffness: range 0-8; for WOMAC scores Pain: range 0-20; for WOMAC scores Physical functionality: range 0-68; for WOMAC scores Total: range 0 to 96
Procedure: (§1) The inclusion criteria were as follows: 1) presence of symptoms for at least one month, 2) number of leukocytes in synovial fluid < 2000/ml, 3) pain on a visual analogue scale (VAS) ≥ 2 at rest and 4) duration of stiffness in the morning ≤ 30 min. The following exclusion criteria were applied: 1) pregnancy or breastfeeding, 2) history of severe renal, hepatic, cardiac, gastrointestinal or haematological diseases, 3) presence of malignant tumours, 4) presence of neurological or psychiatric disorders, 5) atopy or allergic disorders, 6) diabetes mellitus or other endocrine disorders, 7) coagulation disorders, 8) history of peptic ulcer disease, 9) use of corticosteroid in the four weeks prior to the study and 10) use of NSAIDs in the two weeks prior to the study. According to the Kellgren-Lawrence classification system, 61.3% and 38.7% of patients in the study had scores of 1 and 2, respectively.
The study period was two weeks.
Patients (n = 150) were randomised into three study groups (1:1:1 ratio). The randomisation sequence was generated by a special software.
A total of three assessments were performed (at baseline, one week and at the end of the 2-week treatment period).
Clinical endpoints included: • 1) patient's evaluation of the arthritis pain score (VAS) at rest (range: 0-10; where 0 is no pain and 10 is maximum pain), • 2) patient's evaluation of the arthritis pain score (VAS) at movement (range: 0-10; where 0 is no pain and 10 is maximum pain), • 3) joint motion range (degrees) and • 4) WOMAC (Western Ontario and McMaster University) index score [Salaffi et al. Osteoarthritis cartilage 2003; 11: 551-60].
WOMAC score consists of sub-scales that measure pain (range: 0-20; where 0 is no pain and 20 is the maximum pain), stiffness (range: 0-8, where 0 is no stiffness and 8 is the maximum stiffness) and physical functionality (range: 0-68, where 0 is the best functionality and 68 is the worst functionality). The resulting total composite score ranges from 0 to 96.

[2] = Safety in the clinical study (treatment-emergent adverse events, laboratory tests); format: in vivo, human; settings: oral 200 mg/day for 2 weeks, n = 50
Procedure: as §1
Safety was evaluated by recording treatment-emergent adverse events and changes with respect to the baseline in clinical laboratory tests, in vital signs and in objective examinations, all of which were performed during visits at weeks 1 and 2. Clinically relevant changes in laboratory values were defined as: • aspartate aminotransferase (AST) and/or alanine transaminase (ALT) ≥ 3 × upper limit of normal (ULN), • creatinine ≥ 1.3 × ULN, • blood urea nitrogen (BUN) ≥ 2 × ULN, • decrease in haematocrit value ≥ 5 percentage points with respect to the baseline and • decrease in haemoglobin value ≥ 2 g/dl from baseline.

substance P = test: Serum substance P levels (ELISA) in the clinical study; settings: oral 200 mg/day, n = 50

Question: What does the source list for `Cc1ccc(-c2cc(C(F)(F)F)nn2-c2ccc(S(N)(=O)=O)cc2)cc1` [Celecoxib]?
Answer: cell viability (MTT), % of the control value (human neutrophils): 90 ± 2%; PGE2 levels (PGE2): 19.21 ± 2.39 pg/well; Pain at motion, VAS (0-10) ([1]; Baseline): 3.8 ± 0.6; Pain at rest, VAS (0-10) ([1]; Baseline): 2.9 ± 0.4; Range of motion (degrees) ([1]; Baseline): 134 ± 10 degrees; WOMAC scores Stiffness ([1]; Baseline): 1.4 ± 0.3; WOMAC scores Pain ([1]; Baseline): 5.7 ± 0.8; WOMAC scores Physical functionality ([1]; Baseline): 20.5 ± 3.2; WOMAC scores Total ([1]; Baseline): 27.6 ± 3.8; Pain at motion, VAS (0-10) ([1]; End of study (2 weeks)): 2.2 ± 0.4; Pain at rest, VAS (0-10) ([1]; End of study (2 weeks)): 1.5 ± 0.4; Range of motion (degrees) ([1]; End of study (2 weeks)): 173 ± 19 degrees; WOMAC scores Stiffness ([1]; End of study (2 weeks)): 0.7 ± 0.1; WOMAC scores Pain ([1]; End of study (2 weeks)): 3.0 ± 0.9; WOMAC scores Physical functionality ([1]; End of study (2 weeks)): 11.4 ± 1.7; WOMAC scores Total ([1]; End of study (2 weeks)): 15.1 ± 2.2; Pain at motion, VAS (0-10) ([1]; One week): 2.9 ± 0.5; Pain at rest, VAS (0-10) ([1]; One week): 2.0 ± 0.3; Range of motion (degrees) ([1]; One week): 160 ± 15 degrees; WOMAC scores Stiffness ([1]; One week): 1.0 ± 0.2; WOMAC scores Pain ([1]; One week): 4.1 ± 0.9; WOMAC scores Physical functionality ([1]; One week): 14.6 ± 2.1; WOMAC scores Total ([1]; One week): 19.7 ± 2.9; Gastrointestinal adverse events: Constipation [2]: 2 (4%) number of patients (percentages in brackets); Gastrointestinal adverse events: Nausea [2]: 2 (4%) number of patients (percentages in brackets); Other adverse events: Headache [2]: 3 (6%) number of patients (percentages in brackets); Other adverse events: Itching [2]: 1 (2%) number of patients (percentages in brackets); changes with respect to the baseline in laboratory safety tests [2]: no changes with respect to the baseline; SP (serum substance P) (substance P; Baseline): 436 ± 95 pg/mL; SP (serum substance P) (substance P; End of study (2 weeks)): 299 ± 64 pg/mL; SP (serum substance P) (substance P; One week): 358 ± 78 † pg/ml
